These results are taken from US20230256039A1, “COMPOSITIONS AND METHODS TO INCREASE PRODUCTION OF HYDROXYTYROSOL” (priority 2022, published 2023).

Experiment [1] relates to Lactobacillus pentosus strain OL79. To be noted: MIC cutoff values for Lactobacillus pentosus strain OL79; cited from earlier work.
Experiment [2] shares this test system. The experiment can be described thus: Minimum inhibitory concentration (MIC) antibiotic susceptibility of strain OL79. It is filed as cell-based. As to conditions: MIC of antibiotic against strain OL79 versus EFSA cutoff.

Take `CC1(C)S[C@@H]2[C@H](NC(=O)[C@H](N)c3ccccc3)C(=O)N2[C@H]1C(=O)O` [Ampicillin]: the “EFSA Break Point” value in experiment [1] is reported as 2 mg/L. Also, in experiment [2], the Susceptibility result is given as “sensitive”.
Regarding Gentamycin, in experiment [1], the “EFSA Break Point” value is on record as 16 mg/L. The Susceptibility result in experiment [2] is on record as “sensitive”.
`CC[C@H]1OC(=O)[C@H](C)[C@@H](O[C@H]2C[C@@](C)(OC)[C@@H](O)[C@H](C)O2)[C@H](C)[C@@H](O[C@@H]2O[C@H](C)C[C@H](N(C)C)[C@H]2O)[C@](C)(O)C[C@@H](C)C(=O)[C@H](C)[C@@H](O)[C@]1(C)O` [Erythromycin]: in experiment [1], the “EFSA Break Point” value was 1 mg/L. For the same compound, the Susceptibility entry in experiment [2] is recorded as “sensitive”.
Take `O=C(N[C@H](CO)[C@H](O)c1ccc([N+](=O)[O-])cc1)C(Cl)Cl` [Chloramphenicol]: the “EFSA Break Point” value in experiment [1] was 8 mg/L. The Susceptibility entry in experiment [2] was “sensitive”.
